Biological target: BRD4 (Homo sapiens, UniProt O60885)
Assay: biochemical
Assay type: binding
Conditions: one of the FRET assays described; read-out: FRET BRD4 IC50

Row | Structure (SMILES) | IC50
1 | [2H]C([2H])([2H])c1nnn(C)c1-c1cc2c(cc1F)c1ncc(C(C)(C)O)cc1n2C(c1ncccn1)C1CCOCC1 (single isomer, unassigned) [Example 47, 2-{8-fluoro-7-[4-(^2H3)methyl-1-methyl-1H-1,2,3-triazol-5-yl]-5-[oxan-4-yl(pyrimidin-2-yl)methyl]-5H-pyrido[3,2-b]indol-3-yl}propan-2-ol] | < 5 nM
2 | [2H]C([2H])([2H])c1nnn(C)c1-c1cc2c(cc1F)c1ncc(C(C)(C)O)cc1n2C(CCC)c1ccccn1 (single isomer, unassigned) [Example 49, 2-{8-fluoro-7-[4-(^2H3)methyl-1-methyl-1H-1,2,3-triazol-5-yl]-5-[1-(pyridin-2-yl)butyl]-5H-pyrido[3,2-b]indol-3-yl}propan-2-ol] | < 5 nM
3 | Cc1nnn(C)c1-c1cc2c(cc1F)c1ncc(C(C)(C)O)cc1n2[C@H](c1ccccc1)C1CCOCC1 [Example 19, 2-[7-(Dimethyl-1H-1,2,3-triazol-5-yl)-8-fluoro-5-[(S)-oxan-4-yl(phenyl)methyl]-5H-pyrido[3,2-b]indol-3-yl]propan-2-ol] | < 1500 nM
4 | [2H]C([2H])([2H])c1nnn(C)c1-c1cc2c(cc1F)c1ncc(C(C)(C)O)cc1n2C(c1ccc(C)cn1)C1CCOCC1 (single isomer, unassigned) [Example 56, 2-{8-fluoro-7-[4-(^2H3)methyl-1-methyl-1H-1,2,3-triazol-5-yl]-5-[(5-methylpyridin-2-yl)(oxan-4-yl)methyl]-5H-pyrido[3,2-b]indol-3-yl}propan-2-ol] | < 5 nM
5 | Cc1noc(C)c1-c1ccc2c3ncc(C(C)(C)O)cc3n([C@H](c3ccccc3)C3CCOCC3)c2c1F [Example 17, 2-[7-(Dimethyl-1,2-oxazol-4-yl)-6-fluoro-5-[(S)-oxan-4-yl(phenyl)methyl]-5H-pyrido[3,2-b]indol-3-yl]propan-2-ol] | < 5 nM
6 | Cc1nnn(C)c1-c1ccc2c3ncc(S(C)(=O)=O)cc3n([C@H](c3ccccc3)C3CCOCC3)c2c1 [Example 26, 5-{3-Methanesulfonyl-5-[(S)-oxan-4-yl(phenyl)methyl]-5H-pyrido[3,2-b]indol-7-yl}-1,4-dimethyl-1H-1,2,3-triazole] | < 5 nM
7 | Cc1nnn(C)c1-c1ccc2c3ncc(C(=O)O)cc3n([C@H](c3ccccc3F)C3CCOCC3)c2c1 [Example 29, 7-(Dimethyl-1H-1,2,3-triazol-5-yl)-5-[(S)-(2-fluorophenyl)(oxan-4-yl)methyl]-5H-pyrido[3,2-b]indole-3-carboxylic acid] | < 5 nM
8 | Cc1nnn(C)c1-c1cc(Cl)c2c3ncc(C(C)(C)O)cc3n([C@H](c3ccccc3)C3CCOCC3)c2c1 [Example 13, 2-[9-Chloro-7-(dimethyl-1H-1,2,3-triazol-5-yl)-5-[(S)-oxan-4-yl(phenyl)methyl]-5H-pyrido[3,2-b]indol-3-yl]propan-2-ol] | < 1 nM
9 | [2H]C([2H])([2H])c1nnn(C)c1-c1cc2c(cc1Cl)c1ncc(C(C)(C)O)cc1n2C(CCC)c1ncccc1F (single isomer, unassigned) [Example 82, 2-{8-chloro-5-[1-(3-fluoropyridin-2-yl)butyl]-7-[4-(^2H3)methyl-1-methyl-1H-1,2,3-triazol-5-yl]-5H-pyrido[3,2-b]indol-3-yl}propan-2-ol] | < 1500 nM

Same assay, conditions: read-out: FRET BRD4 IC50

Row | IC50 | Structure (SMILES)
10 | < 5 nM | [2H]C([2H])([2H])c1nnn(C)c1-c1ccc2c3ncc(C(C)(C)O)cc3n([C@H](c3ccccc3)C3CCOCC3)c2c1 [Example 16, 2-{7-[4-(^2H3)Methyl-1-methyl-1H-1,2,3-triazol-5-yl]-5-[(S)-oxan-4-yl(phenyl)methyl]-5H-pyrido[3,2-b]indol-3-yl}propan-2-ol]
